Assay results from PubChem BioAssay (NCI).
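Results reflect a 48-hour exposure of cells in 96-well plates to compound at five concentrations. GI50 = concentration required for 50% inhibition of growth. TGI denotes the concentration required for complete inhibition of growth.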

Columns and labels:
Assay in all cases: inhibition of tumour cell growth, NCI panel, 48 h
OVCAR-3 ovarian = test system: OVCAR-3 ovarian
SF-268 CNS = test system: SF-268 CNS
UACC-62 melanoma = test system: UACC-62 melanoma
OVCAR-4 ovarian = test system: OVCAR-4 ovarian
A498 renal = test system: A498 renal
MCF7 breast = test system: MCF7 breast
MDA-N = test system: MDA-N
MDA-MB-435 = test system: MDA-MB-435
HS 578T breast = test system: HS 578T breast
T-47D breast = test system: T-47D breast

SMILES | TGI (OVCAR-3 ovarian) [µM] | TGI (SF-268 CNS) [µM] | TGI (UACC-62 melanoma) [µM] | TGI (OVCAR-4 ovarian) [µM] | TGI (A498 renal) [µM] | TGI (MCF7 breast) [µM] | TGI (MDA-N) [µM] | TGI (MDA-MB-435) [µM] | TGI (HS 578T breast) [µM] | GI50 (OVCAR-3 ovarian) [µM] | GI50 (MCF7 breast) [µM] | GI50 (SF-268 CNS) [µM] | GI50 (UACC-62 melanoma) [µM] | GI50 (HS 578T breast) [µM] | GI50 (OVCAR-4 ovarian) [µM] | GI50 (T-47D breast) [µM] | TGI (T-47D breast) [µM] | GI50 (MDA-MB-435) [µM] | GI50 (A498 renal) [µM]
CCSC1=C(C)N(C=NC(C)(C)C)CC1 | > 100 | > 100 | > 100 | > 100 | > 100 |  |  |  |  |  |  |  |  |  |  |  |  |  | 
[N-]=[N+]=CC(=O)OCC1SCCCS1 | > 100 | > 100 | > 100 | > 100 | > 100 | > 100 | > 100 | > 100 |  |  |  |  |  |  |  |  |  |  | 
CCOC(=O)C(=Cc1ccc(C(=O)OC)cc1)C(=O)OCC | 9.57 | 6.51 | 5.47 | 14 | 26 |  |  |  |  |  |  |  |  |  |  |  |  |  | 
CC(=O)O[C@]12CCCC1C1(O)C(O)CCCC12 (some centres not stated) |  | > 100 | > 100 | > 100 |  |  |  |  |  |  |  |  |  |  |  |  |  |  | 
CSC1=C(C#N)C(=O)N(c2ccc(C)cc2)C(=S)C1C#N (configuration not stated) |  | > 100 | > 100 | > 100 | > 100 | > 100 | > 100 | > 100 | > 100 |  |  |  |  |  |  |  |  |  | 
C#CC(F)(F)[C@]1(O)CC[C@H]2[C@@H]3CCC4=CC(=O)CCC4=C3[C@@H](c3ccc(C(C)=O)cc3)C[C@@]21C | 42.8 | > 100 | 33.8 | 97.1 | 84.8 | 63 |  | 52 | > 95.2 | 0.289 | 2.64 | 0.423 | 12.5 | 17 | 18.9 | < 0.0135 | 36.1 | 13.9 | 23.1
CCCNC(C#N)c1ccc(C(C#N)NCCC)cc1 (configuration not stated) | > 100 | > 100 | > 100 | > 100 | > 100 |  | > 100 | > 100 | > 100 |  |  |  |  |  |  |  | > 100 |  | 
COc1ccc2c(c1)N=C1CSC(c3ccccc3Cl)N1C2 (configuration not stated) |  | 76.2 | 20.3 | 35.6 |  | 53.5 | 26.8 | 27.7 | > 100 |  |  |  |  |  |  |  | > 100 |  | 
Oc1[nH]c2ccccc2c1N=Nc1nc(-c2ccc(Cl)c(Cl)c2)cs1 | > 100 |  |  | > 100 |  | > 100 | > 100 | > 100 |  |  |  |  |  |  |  |  | > 100 |  | 
O=[Se](=O)c1ccccc1.O=[Se](=O)c1ccccc1.[Cu] | 32.7 | 33.1 | 18.9 | 34.5 | 38 | 62 |  |  |  | 13.7 | 24.1 | 17.8 | 6.82 |  | 18.7 |  |  |  | 20.1
O=c1[nH]c(=O)n(Cc2ccccc2CO)cc1Sc1ccccc1 | 42.2 | 70.6 | > 100 | > 100 |  | > 100 |  | 45.2 | 60.6 |  |  |  |  |  |  |  | > 100 |  | 
O=C1C=C(Br)c2c(Br)sc(Br)c21 | 31.4 | > 57.3 | 29.2 | 34.4 |  | 17.4 | > 52 | 42.9 | > 100 |  |  |  |  |  |  |  | 31.4 |  | 
OC1(c2cc3ccccc3s2)CCCCC1 | > 100 | 93.6 | > 100 | > 100 | > 100 | > 100 | > 100 | > 100 | 87.5 |  |  |  |  |  |  |  |  |  | 
Cc1ccc(N2CCc3c(C)c(C#N)c4nc5ccccc5n4c32)cc1 | > 100 | > 100 | > 100 | > 100 |  | > 100 |  | > 100 | 48.3 |  |  |  |  |  |  |  |  |  | 
C/C(=N\NC(N)=S)C(CN(CC(C)C)CC(C)C)C(=O)Nc1ccc(C)cc1C (configuration not stated) | > 100 | > 100 | > 100 | > 100 | > 100 |  |  |  |  |  |  |  |  |  |  |  |  |  | 
O=c1[nH]nc(-c2ccccc2)n1/N=C/c1c(O)ccc2ccccc12 | 43.2 | > 100 | > 100 | 45.7 |  | > 100 | > 100 | > 100 | 50.4 |  |  |  |  |  |  |  |  |  | 
c1ccc2c(c1)nc(NC1CCCC1)c1[nH]c(C3CCCC3)nc12 | 27.9 | 47 | 29.8 | 30.1 | 43.1 |  |  |  |  |  |  |  |  |  |  |  |  |  | 
COC(=O)/C=C/c1cc(O)c2c(c1)[C@H](C(=O)OC)[C@@H](c1ccc(O)c(O)c1)O2 |  | > 87 | > 59.5 | > 100 | > 28 | > 100 |  |  | 78.3 |  |  |  |  |  |  |  |  |  | 
Cc1cccc(C2=NC(C)(C)C(C)(C)N=C2c2cccc(C)n2)n1 | > 100 | > 100 | > 100 | > 100 | > 100 |  |  |  |  |  |  |  |  |  |  |  |  |  | 
Oc1ccc(SCc2cc(O)c(O)c(O)c2)cc1 | > 100 | > 100 | 41.4 |  | > 100 | 38.4 |  | > 100 | > 100 |  |  |  |  |  |  |  | > 100 |  | 
O=C1Cc2c([nH]c3ccc(Br)cc23)-c2ccccc2N1 | > 100 | > 100 | > 100 | > 100 | > 100 |  | > 100 | > 100 | > 100 |  |  |  |  |  |  |  | > 100 |  | 
O=C1Nc2cc([N+](=O)[O-])ccc2NC1/C(=N\Nc1ccccc1)C(O)c1cccc([N+](=O)[O-])c1 (configuration not stated) | > 100 | > 100 | > 100 | > 100 |  |  |  |  |  |  |  |  |  |  |  |  |  |  | 
CCOC(=O)/C=C(\C(=O)OCC)n1ccc(N)nc1=O | > 100 | > 100 | > 100 | > 100 |  | > 100 | > 100 | > 100 | > 100 |  |  |  |  |  |  |  | > 100 |  | 
O=C1C(Br)=CC2(C=C1Br)CCNC1=C2C(=O)c2cccnc2C1=O | 17.9 | 32.2 | 12.9 | 31.2 |  | 41.3 | 3.46 | 3.33 | 45.3 |  |  |  |  |  |  |  |  |  | 
